# Numbering of substitutions follows the chain as printed. Like-named read-outs stand apart in the source and are kept apart here.
# How the values were obtained:
# SHP2 E76K = target: T1, SHP2 E76K (Homo sapiens, UniProt Q06124, E76K); test: In vitro activity on SHP2 mutant E76K phosphatase; type: biochemical
# T1 construct: recombinantly expressed full-length SHP2 (aa 1-593) with E69K and E76K; purchased Novoprotein Scientific Inc
# T1 sequence (Q06124 1-593 E76K): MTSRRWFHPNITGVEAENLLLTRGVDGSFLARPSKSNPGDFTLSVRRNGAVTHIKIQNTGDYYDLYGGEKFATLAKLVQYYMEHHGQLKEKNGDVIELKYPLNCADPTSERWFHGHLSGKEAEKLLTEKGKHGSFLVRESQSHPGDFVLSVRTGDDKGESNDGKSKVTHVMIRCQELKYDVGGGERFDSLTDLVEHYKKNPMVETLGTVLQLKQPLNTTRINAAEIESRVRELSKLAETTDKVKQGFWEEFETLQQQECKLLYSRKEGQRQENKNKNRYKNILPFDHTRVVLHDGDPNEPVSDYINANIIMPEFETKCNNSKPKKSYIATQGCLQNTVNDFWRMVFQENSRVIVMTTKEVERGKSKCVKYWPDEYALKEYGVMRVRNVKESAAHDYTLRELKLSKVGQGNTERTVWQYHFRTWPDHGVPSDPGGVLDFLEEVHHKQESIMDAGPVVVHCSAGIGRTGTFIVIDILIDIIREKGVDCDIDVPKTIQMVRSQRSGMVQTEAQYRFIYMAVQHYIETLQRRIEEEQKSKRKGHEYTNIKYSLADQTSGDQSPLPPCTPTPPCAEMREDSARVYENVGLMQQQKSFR
# Protocol: The reaction solution was shaked (350 rpm) at room temperature for 30 minutes. The reaction substrate DiFMUP with a final concentration of 30 μM was added, and the reaction solution was reacted at room temperature for 30 minutes. The phosphatase reaction was stopped by adding 5 μL of stop solution (60 mM HEPES, pH 7.5, 0.2% SDS).
# [1] = target: T2, SHP2 wild-type phosphatase (recombinantly expressed full-length SHP2, aa 1-593) (Homo sapiens, UniProt Q06124); test: In vitro activity on SHP2 wild-type phosphatase (DiFMUP fluorescence); conditions: wild-type full-length SHP2, activated polypeptide IRS1 0.5 nM, DiFMUP 30 μM;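 also: enzyme preincubated at room temperature, then DiFMUP reaction run at room temperature and halted with SDS, potency derived from a logistic curve fit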
# T2 sequence (Q06124 1-593): T1 sequence (Q06124 1-593 E76K) with K76E
# KYSE-520 cells = test: KYSE-520 cell proliferation experiment (CellTiter-Glo, 7 days); type: cell-based; conditions: Homo sapiens
# [2] = Pharmacokinetics assay in rats; type: in vivo, SD rats; conditions: rat; for AUC / clearance / half-life / bioavailability / Cmax: male, SD, plasma; for AUC: read-out: Area under curve AUC; for clearance: read-out: Clearance CL_obs; for half-life: read-out: Half-life T1/2 (converted); for bioavailability: PO 5 mg/kg vs IV 1 mg/kg, read-out: Bioavailability F; for Cmax: read-out: Maximum plasma concentration Cmax
# Protocol: Rats were used as test animals. The drug concentration in plasma at different time points was determined by LC/MS/MS method after intravenous administration or intragastrical administration of the compound of the present invention to rats. The pharmacokinetic behavior of the compound of the present invention was studied and evaluated in rats.
# The atropisomer with a RT of 1.495 minutes in Examples 3 and 4, compounds of Example 17, Example 41 and Example 43.
# Healthy male SD rats (6-8 weeks old), 3 rats per group.
# Intravenous administration: A certain amount of the test compound was weighed, to which 10% by volume of N,N-dimethylacetamide, 33% by volume of triethylene glycol and 57% by volume of water were added to prepare a 1 mg/mL colorless, clear and transparent solution;
# Intragastrical administration: A certain amount of the test compound was weighed, to which 0.5% by mass of hypromellose, 0.1% by volume of Tween 80 and 99.4% by volume of water were added to prepare a 1 mg/mL white suspension.
# After an overnight fast, the SD rats were intravenously administered the test compound at an administration dose of 1 mg/kg, or intragastrically administered the test compound at an administration dose of 5 mg/kg.
# (§1) The rats were intravenously administered the compound of the present invention. 0.2 ml of blood was taken from the jugular vein at 0.083, 0.25, 0.5, 1, 2, 4, 8 and 24 hours after the administration. The samples were placed in tubes containing EDTA-K2, and centrifuged at 4000 rpm and 4° C. for 5 minutes to separate the blood plasma. The plasma samples were stored at −75° C.
# as §1, with “Or, the rats” for “The rats”, “were intragastrically” for “were intravenously”, “at” for “at 0.083,”
# The content of the test compound in the plasma of rat after intragastrical administration of the test compound at different concentrations was determined: 50 μL of rat plasma at each time after administration was taken, to which 200 μL of a solution (50 ng/mL) of internal standard dexamethasone in acetonitrile was added. The plasma was vortex-mixed for 30 seconds, and centrifuged at 4700 rpm and 4° C. for 15 minutes. The supernatant was taken from the plasma samples, and a three-fold dilution was carried out by adding water. 2.0 μL of the supernatant was used for LC/MS/MS analysis.
"IC50 (SHP2 E76K; activated polypeptide IRS1 added, read-out: SHP2 E76K the activated polypeptide was added IC50)","IC50 (SHP2 E76K; activated polypeptide not added, read-out: SHP2 E76K the activated polypeptide was not added IC50)",SMILES,"IC50 (SHP2 E76K; SHP2 E76K the activated polypeptide was added IC50, activated polypeptide IRS1 added)","IC50 (SHP2 E76K; SHP2 E76K the activated polypeptide was not added IC50, activated polypeptide not added)",IC50 [1],IC50 (KYSE-520 cells),AUC ([2]; IV 1 mg/kg),clearance ([2]; IV 1 mg/kg),half-life ([2]; IV 1 mg/kg),bioavailability [2],AUC ([2]; PO 5 mg/kg),half-life ([2]; PO 5 mg/kg),Cmax ([2]; PO 5 mg/kg),Apparent distribution volume Vss_obs ([2]; IV 1 mg/kg)
,,"CNc1nccc(Sc2c(C)nc(N3CCC4(CC3)Cc3ncccc3[C@H]4N)n3ccnc23)c1Cl [Example 41, (S)-1′-(8-((3-Chloro-2-(methylamino)pyridin-4-yl)thio)-7-methylimidazo[1,2-c]pyrimidin-5-yl)-5,7-dihydrospiro[cyclopenta[b]pyridine-6,4′-piperidin]-5-amine]",134 nM,5.4 nM,2.1 nM,58.3 nM,1130 ± 210 ng·h/mL,14.6 ± 2.6 mL/min/kg,5.33 ± 0.11 h,67.6 ± 10.9%,3880 ± 631 ng·h/mL,4.22 ± 0.11 h,339 ± 88 ng/mL,4.75 ± 0.72 L/kg
78 nM,4.2 nM,"CNc1nccc(Sc2cnc(N3CCC4(CC3)Cc3ncccc3[C@H]4N)n3ccnc23)c1Cl [Example 43, (S)-1′-(8-((3-Chloro-2-(methylamino)pyridin-4-yl)thio)imidazo[1,2-c]pyrimidin-5-yl)-5,7-dihydrospiro[cyclopenta[b]pyridine-6,4′-piperidin]-5-amine]",,,2 nM,30.4 nM,6640 ± 1360 ng·h/mL,2.52 ± 0.52 mL/min/kg,4.71 ± 0.27 h,75.4 ± 7.5%,25200 ± 2500 ng·h/mL,4.17 ± 0.14 h,2510 ± 405 ng/mL,0.765 ± 0.082 L/kg
